According to article PMC11215747, “Improved Rigidin-Inspired Antiproliferative Agents with Modifications on the 7-Deazahypoxanthine C7/C8 Ring Systems” (Journal of Medicinal Chemistry, 2024):
Entries after “also recorded” stand apart in the source; their conditions may differ. Where two headings read alike, the source gives them in different places.

How the values were obtained:
PNT1A cells = test: MTT cytotoxicity assay against normal epithelial cell line PNT1A; type: cell-based; details: Homo sapiens, PNT1A
Experimental: (§1) The 3-(4,5-dimethylthiazol-2-yl)-2,5-diphenyltetrazolium bromide (MTT) assay was employed to evaluate the antiproliferative activities of the synthesized 7-deazahypoxathine analogues. The HeLa, PNT1A, or PANC-1 cell lines were assessed by trypsinizing and seeding 4 × 10^3 cells per well into 96-well plates. Synthesized compounds were dissolved in DMSO at a concentration of either 50 mM or 100 mM before cell treatment. Cells were grown for 24 h and then treated with compounds at concentrations ranging from 0.04 to 100 μM and incubated for 48 h in 200 μL media. Twenty microliters of MTT reagent in serum-free medium (5 mg/mL) was added to each well and incubated further for 2 h. Media was removed and the resulting formazan crystals were resolubilized in 200 μL of DMSO. A Thermomax Molecular Device plate reader was utilized to measure A490. Experiments were performed in quadruplicate and repeated at least twice for each compound. The control comprised of cells treated with 0.1% DMSO. One micromolar phenyl arsine oxide (PAO) was utilized as a positive killing control.

MCF-7 cells = system: MCF-7 cells; design: method as in PMID 26641132; details: cited from earlier work
[1] = system: WI38 embryonic lung fibroblast cell line; design: method as in PMID 26641132; details: fold less active; cited from earlier work
human colon cancer lines = system: human colon cancer lines; design: method as in PMID 26641132; details: several human colon cancer lines; cited from earlier work
HeLa cells [2] = test: Annexin V apoptosis assay and cell-fate tracking in HeLa cells; type: cell-based, Human; details: 20 nM; for apoptosis at the 30 hour time point (Annexin V fluorescence): 6 biological replicates, one-way ANOVA amongst compounds; for total numbers of cells that died following mitotic arrest: single-cell tracking, >130 cells per treatment
Experimental: To directly assess apoptosis in living cells, HeLa cells were plated (six biological replicates per condition) in 96-well Imagelock Plates (Sartorius BA-04855) at a density of 1,562.5 cells/cm^2. The following day, cells were placed in media containing IncuCyte Annexin V Dye (Sartorius 4642) supplemented with either 0.1% Dimethyl sulfoxide or test compounds (20 nM), and plates were placed in a Sartorius Incucyte S3 live cell imaging system. Plates were scanned hourly, with phase contrast and green fluorescence images were acquired at three positions per well. Raw fluorescence data was processed using Incucyte software, and Prism Graphpad was used for data visualization and statistical analysis. To track individual cell fates, combined phase contrast/fluorescence time lapse sequences were exported from multiple wells per condition, and cell fates individual cells were scored and tabulated using Graphpad Prism software.

colon cancer = system: colon cancer; design: method as in PMID 26641132; details: mouse model for colon cancer, 3 mg/kg; cited from earlier work
HeLa cells [3] = test: Live cell imaging of EGFP-tubulin expressing HeLa cells; type: cell-based, Human; details: 7.5 nM (50% of GI50), 4 h
Experimental: HeLa cells were plated on 35 mm glass-bottomed Mattek dishes (Mattek, code P35G-1.5–14-C). Next day, transient transfection of EGFP-tubulin was performed using a Lipofectamine 2000 (Thermofisher code 11668019) according to the manufacturer’s instructions. After 6 h of transfection, cells were cultured in fresh media overnight before being treated with either 0.1% DMSO or 7.5 nM analogue 33 for 4 h. To visualize chromatin, cells were cultured in the presence the cell permeant NucSpot Live nuclear stain (Biotium code 40082) for 60 min prior to imaging. Cells were imaged live using an Andor Dragonfly 505 spinning disk confocal system mounted on an Olympus IX83 inverted microscope. Cell viability was maintained by an Oko Touch prewarmed (37 °C) temperature-controlled microscope stage supplied with 5% CO2. Z-stacks (10 planes at […] intervals) were acquired every 2 min using a 60× Aprochromat silicon objective (NA 1.30) and an Andor iXon 888 EMCCD camera driven by Andor Fusion software. Fusion IMS files were converted to tiff images and avi movies using FIJI, and figures were prepared in Adobe Photoshop CS5.

tubulin = target: T1, tubulin (Sus scrofa, UniProt P02554); test: Fluorescence-based tubulin polymerization assay; type: biochemical; details: 25 μM, relative to 1% DMSO control, averaged from two experiments
T1 construct: purchased Cytoskeleton, Inc
Experimental: The fluorescence-based tubulin polymerization assay from Cytoskeleton, Inc. was used. […] The tubulin reaction mixture was prepared per manufacturer’s instructions, kept on ice, and used within ∼15 min of preparation. A Biotek Synergy H4 hybrid multimode plate reader was preheated to 37 °C. Prior to starting the assay, a half-area black 96-well plate was preheated within the plate reader. A volume of 5 μL of each of the tested samples was pipetted into separate wells of the plate and incubated in the warm plate reader for 1 min.

HeLa cells [4] = test: Microtubule organization by immunolabeling in HeLa cells; type: cell-based, Human; details: 4 h
Experimental: To examine microtubule morphology in rigidin-treated cells, HeLa cells were incubated for 4 h in the presence or absence of test compound before being fixed with 3.7% formaldehyde in PBS and permeabilized with 0.1% Triton X-100 in PBS. After blocking the cells with 3% bovine serum albumin in PBS, they were probed with antibodies for the centromere marker CENP-B (Abcam, code ab25734) and tubulin (Sigma, code sc-53029), which were detected with Alexa Fluor-labeled secondary antibodies (Thermofisher). Hoechst 33342 (1 mg/mL, Thermofisher H3570) was used to stain DNA. Samples were mounted on glass slides and imaged using Andor Dragonfly 505 spinning disk confocal system mounted on an Olympus IX83 inverted microscope. Figures were created with Adobe Photoshop CS5. All drugs were resuspended in DMSO, and 0.1% DMSO served as a carrier control.

PANC-1 cells = test: MTT cytotoxicity assay against PANC-1 cells; type: cell-based; details: Homo sapiens; PANC-1 cell line
Experimental: as §1

HeLa cells [5] = test: MTT antiproliferative assay against HeLa cells; type: cell-based, Human; details: Homo sapiens, MTT, 48 h, average and SD from two independent determinations, each in quadruplicate (footnote c), read-out: GI50 (μM) ± SD
Experimental: as §1, with “control. […]” for “control.”

T1 sequence (P02554 whole entry): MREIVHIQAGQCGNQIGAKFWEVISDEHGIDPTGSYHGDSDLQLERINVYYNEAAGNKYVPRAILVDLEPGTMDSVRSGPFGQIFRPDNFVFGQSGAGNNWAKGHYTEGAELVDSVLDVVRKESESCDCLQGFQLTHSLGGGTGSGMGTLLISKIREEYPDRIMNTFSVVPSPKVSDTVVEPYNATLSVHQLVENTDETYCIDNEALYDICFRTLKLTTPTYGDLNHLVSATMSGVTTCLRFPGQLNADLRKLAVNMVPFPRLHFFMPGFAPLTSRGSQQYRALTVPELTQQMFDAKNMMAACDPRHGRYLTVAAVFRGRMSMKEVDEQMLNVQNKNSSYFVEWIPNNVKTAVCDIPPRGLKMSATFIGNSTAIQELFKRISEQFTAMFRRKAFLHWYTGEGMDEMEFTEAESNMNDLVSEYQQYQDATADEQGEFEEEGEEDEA
T1 sequence (P02550 whole entry partner): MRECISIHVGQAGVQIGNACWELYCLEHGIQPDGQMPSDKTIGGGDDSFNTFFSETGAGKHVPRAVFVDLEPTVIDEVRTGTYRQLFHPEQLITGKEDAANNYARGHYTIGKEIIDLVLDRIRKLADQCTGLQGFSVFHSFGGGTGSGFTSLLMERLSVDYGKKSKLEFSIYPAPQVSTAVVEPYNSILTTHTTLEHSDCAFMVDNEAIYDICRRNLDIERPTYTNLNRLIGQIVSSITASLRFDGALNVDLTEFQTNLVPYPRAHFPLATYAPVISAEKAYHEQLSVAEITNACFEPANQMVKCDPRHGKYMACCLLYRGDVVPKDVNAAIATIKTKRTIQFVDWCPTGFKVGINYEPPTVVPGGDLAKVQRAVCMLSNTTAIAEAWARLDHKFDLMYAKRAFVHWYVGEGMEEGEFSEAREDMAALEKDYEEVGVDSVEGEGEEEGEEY

SMILES | GI50 (PNT1A cells; read-out: PNT1A GI50(mM)) | GI50 (MCF-7 cells) | activity against WI38 compared to four colorectal cancer cell lines [1] | GI50 values (human colon cancer lines) | apoptosis at the 30 hour time point (Annexin V fluorescence) (HeLa cells [2]) | total numbers of cells that died following mitotic arrest (HeLa cells [2]) | body weight (colon cancer) | side effects (colon cancer) | tumor size (colon cancer) | GI50 (PNT1A cells; molecular formula strings CSV, read-out: PNT1A GI50) | mitotic progression in live cell imaging (HeLa cells [3]) | effect on in vitro tubulin polymerization (tubulin) | effect on interphase microtubules (HeLa cells [4]; at GI50 concentrations) | effect on spindle morphology (HeLa cells [4]; at GI50 concentrations) | syntelic chromosome attachments (HeLa cells [4]; lower concentrations (GI25)) | GI50 (PANC-1 cells) | GI50 (HeLa cells [5])
C#CCCCc1nc(=O)c2c(-c3ccccc3)c(C(=O)c3ccccc3)[nH]c2[nH]1 [Compound 1, 6-Benzoyl-2-(pent-4-yn-1-yl)-5-phenyl-1,7-dihydro-4H-pyrrolo[2,3-d]pyrimidin-4-one] | 36 ± 9 nM | 35 nM | approximately 1000 fold | approaching single-digit nanomolar values | no significant differences | 75% | maintaining body weight | no observable side effects | significant tumor size reduction |  |  |  |  |  |  |  | 
C#CCCCc1nc(=O)c2c(-c3ccccc3)c(C(=O)c3ccc(OCCOCC)cc3)[nH]c2[nH]1 [Compound 33, 6-[4-(2-Ethoxyethoxy)benzoyl]-2-(pent-4-yn-1-yl)-5-phenyl-1,7-dihydro-4H-pyrrolo[2,3-d]pyrimidin-4-one] |  |  |  |  | no significant differences | 86% |  |  |  | 24 ± 5 nM | various responses ranging from correcting the syntelic attachments and progressing through mitosis to prolonged prometaphase arrest, followed by mitotic exit and/or cell death | potent inhibition of microtubule assembly; also recorded: completely suppress tubulin polymerization | no striking effects on interphase microtubules | remarkable effects on the spindle morphology | still prevalent | 15 nM | 0.015 ± 0.004 µM
